# How the values were obtained:
# MOLT-4 cells [1] = assay: Cytotoxicity assessment by MTT assay system; type: cell-based, human; details: two days incubation
# Experimental: (§1) The diluted drug was distributed into a 96-well microplate at 50 μl per well.
# (§2) {circle over (2)} Thereafter, MOLT-4 cells were plated in an amount of 3×10^4 cells/150 μl per well.
# (§3) {circle over (3)} Each well was incubated at 37° C. for two days under a 100% humidified atmosphere of air containing 5% carbon dioxide and subjected to the measurement described hereinbelow. In a fluorescence measurement, an MTP-32 fluorometer (manufactured by Corona Denki K.K., Japan) was used.
# MOLT-4 cells [2] = assay: Cytotoxicity assessment by method of the present invention (PO-PRO-1 Iodide fluorescence before/after Triton X-100); type: cell-based, human; details: two days incubation, from viable cell numbers
# Experimental: as §1, §2, §3
# {circle over (4)} To each well was added 10 μl of PO-PRO-1 Iodide (trade name) (final concentration: 2.5 μM), the mixture was agitated for about 30 seconds using a plate mixer and fluorescence was measured to determine Fd′.
# {circle over (5)} To each well was further added 10 μl of Triton X-100 (trade name) (final concentration: 0.05%), the mixture was agitated for about 30 seconds using a plate mixer and fluorescence was measured to determine Ft′.
structure (smiles),measurement,setting,value
CO[C@@]12[C@H](COC(N)=O)C3=C(C(=O)C(C)=C(N)C3=O)N1C[C@@H]1N[C@@H]12 [Mitomycin C],IC50,MOLT-4 cells [1],5.5 µg/mL
same,IC50,MOLT-4 cells [2],2.2 µg/mL
